Assays:
[1] = test system: recombinant human CFTR carrying the premature stop codon (PTC) mutation G542X; experiment: CFTR-PTC mutant translation readthrough, Nanoluc tagged CFTR luminescence (G542X cell line); format: cell-based; details: in combination with G418, G542X cell line; for CFTR G542X ACTIVITY Fold 10 μM G-418: fold over 10 μM G-418; for EC50: 16HBE cells
Procedure, shortened: (§1)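 Readthrough is the 48 h compound-induced luminescence increase scaled to that of maximal G418 (125-250 μM). Compounds run from 50 μM final in 2-fold steps, ±10 μM G418, on 16HBE lines carrying Nanoluc-tagged CFTR G542X (extracellular loop 4 tag) or R1162X (C-terminal tag), with 3 μM VX-809 present.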

[2] = test system: recombinant human CFTR carrying the premature stop codon (PTC) mutation R1162X; experiment: CFTR-PTC mutant translation readthrough, Nanoluc tagged CFTR luminescence (R1162X cell line); format: cell-based; details: for CFTR R1162X ACTIVITY Fold 10 μM G-418: fold over 10 μM G-418, in combination with G418; for EC50: in combination with G418, 16HBE cells, read-out: CFTR R1162X ACTIVITY EC50
Procedure, shortened: as §1

| SMILES | CFTR G542X ACTIVITY Fold 10 μM G-418 [1] | EC50 [1] | CFTR R1162X ACTIVITY Fold 10 μM G-418 [2] | EC50 [2] |
| --- | --- | --- | --- | --- |
| CNCC1CN(c2ncc(OCc3c(Cl)cccc3Cl)cn2)CCO1 (stereo not shown) | B′ (B′ = ≥5X to <10X) | 1000 to 10000 nM | B′ (B′ = ≥5X to <10X) | 1000 to 10000 nM |
| Cc1cccc(C(C)(F)F)c1COc1ccc(N2CC(CO)NC2=O)nc1 (stereo not shown) | A′ (A′ = ≥10X) | 1000 to 10000 nM | A′ (A′ = ≥10X) | 1000 to 10000 nM |
| CC1(O)CCN(c2ncc(OCc3c(Cl)cccc3C(F)(F)F)cn2)CC1 | A′ (A′ = ≥10X) | < 1000 nM | A′ (A′ = ≥10X) | < 1000 nM |
| CN1C(=O)CN(c2ccc(OCc3c(Cl)cccc3C(F)(F)F)cn2)C1=O | A′ (A′ = ≥10X) | < 1000 nM | A′ (A′ = ≥10X) | < 1000 nM |
| O=C1CCN(c2ncc(OCc3c(Cl)cccc3C(F)(F)F)cn2)C(=O)N1 | C′ (C′ = <5X) | 1000 to 10000 nM | – | > 10000 nM |
| CCCCN1CC(=O)N(c2ccc(OCc3c(C)cccc3C(F)(F)F)cc2)C1=O | B′ (B′ = ≥5X to <10X) | 1000 to 10000 nM | B′ (B′ = ≥5X to <10X) | 1000 to 10000 nM |
| Cc1cccc(C(F)(F)F)c1COc1cnc(NC(=O)N(C)C)nc1 | A′ (A′ = ≥10X) | 1000 to 10000 nM | C′ (C′ = <5X) | 1000 to 10000 nM |
| Cc1cccc(C(F)(F)F)c1COc1cnc(N2CCN(C(N)=O)C(CO)C2)nc1 (stereo not shown) | A′ (A′ = ≥10X) | < 1000 nM | A′ (A′ = ≥10X) | < 1000 nM |
| COc1cccc(Br)c1COc1ccc(N2CC(CO)OC2=O)cc1 (stereo not shown) | A′ (A′ = ≥10X) | > 10000 nM | B′ (B′ = ≥5X to <10X) | > 10000 nM |
| Cc1cccc(C(F)(F)F)c1COc1ccc(N2C(=O)NC3(CCCC3)C2=O)cc1 | A′ (A′ = ≥10X) | < 1000 nM | B′ (B′ = ≥5X to <10X) | 1000 to 10000 nM |
| O=C1OC(CO)CN1c1cnc(OCc2c(Cl)cccc2Cl)cn1 (stereo not shown) | B′ (B′ = ≥5X to <10X) | 1000 to 10000 nM | B′ (B′ = ≥5X to <10X) | > 10000 nM |
| COc1ccc(CN2C(=O)CN(c3ccc(OCc4c(C)cccc4C(F)(F)F)cc3)C2=O)cc1 | B′ (B′ = ≥5X to <10X) | 1000 to 10000 nM | B′ (B′ = ≥5X to <10X) | 1000 to 10000 nM |
| Cc1cccc(C(F)(F)F)c1COc1cnc(N2CC(=O)N(CO)C2=O)nc1 | A′ (A′ = ≥10X) | 1000 to 10000 nM | A′ (A′ = ≥10X) | 1000 to 10000 nM |
| Cc1cccc(C(F)(F)F)c1COc1cnc(N2CC(=O)N(C)C2=O)nc1 | A′ (A′ = ≥10X) | 1000 to 10000 nM | A′ (A′ = ≥10X) | 1000 to 10000 nM |
| Cc1cccc(C(F)(F)F)c1COc1ccc(N2CC(=O)N(C)C2=O)nc1 | A′ (A′ = ≥10X) | < 1000 nM | A′ (A′ = ≥10X) | < 1000 nM |
| Cc1cccc(C(F)(F)F)c1COc1cnc(N2CCC(O)C(C)(C)C2)nc1 (stereo not shown) | A′ (A′ = ≥10X) | < 1000 nM | A′ (A′ = ≥10X) | < 1000 nM |
| Cc1cccc(C(C)(F)F)c1COc1cnc(N2CCN(C(N)=O)CC2)nc1 | A′ (A′ = ≥10X) | < 1000 nM | A′ (A′ = ≥10X) | < 1000 nM |
| FC(F)(F)c1cccc(Cl)c1COc1cnc(-n2cc(-c3ccccn3)nn2)nc1 | A′ (A′ = ≥10X) | < 1000 nM | A′ (A′ = ≥10X) | < 1000 nM |

| SMILES | CFTR G542X ACTIVITY Fold 10 μM G-418 [1] | EC50 [1] | CFTR R1162X ACTIVITY Fold 10 μM G-418 [2] | EC50 [2] |
| --- | --- | --- | --- | --- |
| FC1(F)CCN(c2ncc(OCc3c(Cl)cccc3C(F)(F)F)cn2)C1 | A′ (A′ = ≥10X) | 1000 to 10000 nM | A′ (A′ = ≥10X) | 1000 to 10000 nM |
| FC(F)(F)c1cccc(Cl)c1COc1cnc(-n2ncc(-c3ccccn3)n2)nc1 | A′ (A′ = ≥10X) | < 1000 nM | A′ (A′ = ≥10X) | < 1000 nM |
| Cc1cccc(C(F)(F)F)c1COc1cnc(-n2ncc(-c3ccccn3)n2)nc1 | A′ (A′ = ≥10X) | < 1000 nM | A′ (A′ = ≥10X) | < 1000 nM |
| Cc1cccc(C(F)(F)F)c1COc1cnc(-n2cc(-c3ccccn3)nn2)nc1 | A′ (A′ = ≥10X) | < 1000 nM | B′ (B′ = ≥5X to <10X) | < 1000 nM |
| CN(CC1CNCCO1)c1ncc(OCc2c(Cl)cccc2Cl)cn1 (stereo not shown) | C′ (C′ = <5X) | 1000 to 10000 nM | C′ (C′ = <5X) | 1000 to 10000 nM |
| Cc1cccc(C(F)(F)F)c1COc1ccc(N2C(=O)NC(C(C)C)C2=O)cc1 (stereo not shown) | A′ (A′ = ≥10X) | < 1000 nM | A′ (A′ = ≥10X) | 1000 to 10000 nM |
| CC(=O)NC[C@@H]1CN(c2ncc(OCc3c(C)cccc3C(F)(F)F)cn2)CCO1 | A′ (A′ = ≥10X) | < 1000 nM | A′ (A′ = ≥10X) | 1000 to 10000 nM |
| CC(=O)NC[C@H]1CN(c2ncc(OCc3c(C)cccc3C(F)(F)F)cn2)CCO1 | A′ (A′ = ≥10X) | < 1000 nM | A′ (A′ = ≥10X) | 1000 to 10000 nM |
| CNC(=O)N1CCN(c2ncc(OCc3c(C)cccc3C(F)(F)F)cn2)CC1 | A′ (A′ = ≥10X) | < 1000 nM | A′ (A′ = ≥10X) | < 1000 nM |
| Cc1cccc(C(F)(F)F)c1COc1cnc(N2CCN(C(N)=O)[C@@H](C)C2)nc1 | A′ (A′ = ≥10X) | < 1000 nM | A′ (A′ = ≥10X) | < 1000 nM |
| Cc1cccc(C(F)(F)F)c1COc1cnc(N2CCC[C@@H](O)C2)nc1 | A′ (A′ = ≥10X) | < 1000 nM | A′ (A′ = ≥10X) | 1000 to 10000 nM |
| NC(=O)[C@@H]1CCN(c2ncc(OCc3c(Cl)cccc3C(F)(F)F)cn2)C1 | A′ (A′ = ≥10X) | 1000 to 10000 nM | A′ (A′ = ≥10X) | 1000 to 10000 nM |
| Cc1cccc(C(F)(F)F)c1COc1cnc(N2CC[C@@H](C(N)=O)C2)nc1 | A′ (A′ = ≥10X) | 1000 to 10000 nM | A′ (A′ = ≥10X) | 1000 to 10000 nM |
| OCc1nnc(-c2ccc(OCc3c(Cl)cccc3C(F)(F)F)cc2)o1 | A′ (A′ = ≥10X) | < 1000 nM | A′ (A′ = ≥10X) | < 1000 nM |
| OCc1cc(-c2ncc(OCc3c(Cl)cccc3C(F)(F)F)cn2)[nH]n1 | A′ (A′ = ≥10X) | < 1000 nM | A′ (A′ = ≥10X) | 1000 to 10000 nM |
| Cc1cccc(C(F)(F)F)c1COc1cnc(N2CCO[C@H](CN)C2)nc1 | A′ (A′ = ≥10X) | < 1000 nM | A′ (A′ = ≥10X) | < 1000 nM |
| Cc1cccc(C(F)(F)F)c1COc1cnc(N2CCO[C@@H](CN)C2)nc1 | A′ (A′ = ≥10X) | < 1000 nM | A′ (A′ = ≥10X) | < 1000 nM |

From patent US20250228865A1, “COMPOUNDS FOR ENHANCING READ THROUGH OF GENES CONTAINING PREMATURE TERMINATION CODONS AND METHODS FOR MAKING AND USING THE SAME” (Sanofi US Services Inc., priority 2022, published 2025)
